Legend:
[1] = test system: Y2651 OE CYP51 F5 RaCPR; test: MIC80 determination, strain Y2651; format: cell-based, S. cerevisiae; conditions: Saccharomyces cerevisiae
Protocol: (§1) Cells were seeded at an OD600 nm of 0.005 (1.5 × 10^4 CFU), and the plates were incubated at 30 °C with shaking at 200 rpm for 48 h for S. cerevisiae strains and 24 h for C. albicans . Cell growth was assessed by measuring the OD600 nm using a Synergy 2 multimode plate reader (BioTek Instruments, VT, USA). Each MIC80 was determined using triplicate measurements for pools of 4 clones of each strain in three separate experiments.

[2] = test system: Y2513 ScCYP51 Y140H mutant; test: Agarose (disk) diffusion assay, strain Y2513; format: cell-based, S. cerevisiae; conditions: 10 nmol/disk, 30 °C, 48 h
Text: (§2) Final compounds were screened as racemic mixtures using agarose diffusion assays to visualize their inhibitory activity against a panel of recombinant S. cerevisiae strains i.e., S. cerevisiae strains expressing control levels of wild-type CYP51 (ScCYP51), overexpressed wild-type ScCYP51, overexpressed azole-resistant ScCYP51 Y140F/H mutations and overexpressed C. albicans efflux pumps MDR1a or CDR1B (Figure and Table S1).
(§3) The susceptibilities of S. cerevisiae and Candida species strains to azole compounds were observed as zones of growth inhibition in agarose diffusion assays. The disk diffusion assays were carried out as described by Keniya et al. Complete supplement mixture (CSM) agarose (0.6% agarose [wt/vol]; 20 mL of synthetic defined medium (SD); pH 6.8–7) was solidified in a rectangular Petri dish which was overlaid with CSM agarose (0.6% [wt/vol]; 5 mL; pH 6.8–7) seeded with yeast cells at an optical density (OD600) of 0.008 (118,000 cells per 1 mL of overlay). Azole compounds (10 nmol/disk) were applied to sterile BBL paper disks (Becton Dickinson Co., Sparks, MD) and placed on solidified overlays. Cell growth was assessed after incubation at 30 °C for 48 h.

[3] = test system: Y2300 OE ScCYP51; test: MIC80 determination, strain Y2300; format: cell-based, S. cerevisiae; conditions: Saccharomyces cerevisiae; for MIC80: 48 h, pH 6.8; for MIC: read-out: MIC (nM) S. cerevisiae Y2300
Protocol: as §1

[4] = test system: Y2649 OE CYP51 F1 RaCPR; test: MIC80 determination, strain Y2649; format: cell-based, S. cerevisiae; conditions: for MIC: Rhizopus arrhizus, read-out: MIC (nM) R. arrhizus model Y2649; for MIC80: Saccharomyces cerevisiae
Protocol: as §1

[5] = test system: Y611 FHB3; test: MIC80 determination, C. albicans clinical isolate Y611 FHB3; format: cell-based; conditions: Candida albicans, 24 h, pH 7
Protocol: as §1

[6] = test system: Y2411 Endog. ScCYP51; test: MIC80 determination, strain Y2411; format: cell-based, S. cerevisiae; conditions: Saccharomyces cerevisiae; for MIC80: strain Y2411 Endog. ScCYP51, SD pH 6.8, 30 °C, 48 h; for MIC: supplement csv, read-out: MIC (nM) S. cerevisiae Y2411
Protocol: as §1

[7] = test system: Y71 SC5314; test: MIC80 determination, C. albicans clinical isolate Y71 SC5314; format: cell-based; conditions: Candida albicans; for MIC: SC5314, supplement csv; for MIC80: C. albicans clinical isolate Y71 SC5314, pH 7, 24 h
Protocol: as §1

[8] = test system: Y2301 ScCYP51 Y140F mutant; test: Agarose (disk) diffusion assay, strain Y2301; format: cell-based, S. cerevisiae; conditions: 10 nmol/disk, 30 °C, 48 h
Text: as §2, §3

[9] = test system: Y2747 OE AfCYP51B AfCPR AfERG6; test: MIC80 determination, strain Y2747; format: cell-based, S. cerevisiae; conditions: for MIC: Aspergillus fumigatus, read-out: MIC (nM) A. fumigatus model Y2747; for MIC80: Saccharomyces cerevisiae
Protocol: as §1

[10] = test system: Y2374 OE CgCYP51; test: MIC80 determination, strain Y2374; format: cell-based, S. cerevisiae; conditions: Saccharomyces cerevisiae; for MIC: read-out: MIC (nM) C. glabrate model Y2374
Protocol: as §1

[11] = test system: Y2459 OE CaCYP51 CaCpr; test: MIC80 determination, strain Y2459; format: cell-based, S. cerevisiae; conditions: for MIC80: Saccharomyces cerevisiae, 48 h, pH 6.8; for MIC: read-out: MIC (nM) C. albicans model Y2459
Protocol: as §1

[12] = test system: Y610 FHB1; test: MIC80 determination, C. albicans clinical isolate Y610 FHB1; format: cell-based; conditions: Candida albicans; C. albicans clinical isolate Y610 FHB1 (weakly expresses CaCDR1); pH 7, 24 h
Protocol: as §1

[13] = test system: Y433 OE CgCDR1; test: MIC80 determination, strain Y433; format: cell-based, S. cerevisiae; conditions: Saccharomyces cerevisiae
Protocol: as §1

[14] = test system: 2711 CnCYP51 OE CnCPR; test: MIC80 determination, strain 2711; format: cell-based, S. cerevisiae; conditions: for MIC80: Saccharomyces cerevisiae; for MIC: read-out: MIC (nM) C. neoformans model Y2711
Protocol: as §1

[15] = test system: Y570 OE CaCDR1B; test: MIC80 determination, strain Y570; format: cell-based, S. cerevisiae; conditions: for MIC: Candida albicans, read-out: MIC (nM) C. albicans model Y570; for MIC80: Saccharomyces cerevisiae, 48 h, pH 6.8
Protocol: as §1

[16] = test system: Y525 OE CaMDR1a; test: MIC80 determination, strain Y525; format: cell-based, S. cerevisiae; conditions: for MIC80: Saccharomyces cerevisiae, 48 h, pH 6.8; for MIC: read-out: MIC (nM) C. albicans model Y525
Protocol: as §1

[17] = test system: Y2301 OE ScCYP51 Y140F; test: MIC80 determination, strain Y2301; format: cell-based, S. cerevisiae; conditions: Saccharomyces cerevisiae; for MIC80: 48 h, pH 6.8; for MIC: read-out: MIC (nM) S. cerevisiae Y2301
Protocol: as §1

[18] = test system: Y2513 OE ScCYP51 Y140H; test: MIC80 determination, strain Y2513; format: cell-based, S. cerevisiae; conditions: Saccharomyces cerevisiae; for MIC80: 48 h, pH 6.8; for MIC: read-out: MIC (nM) S. cerevisiae Y2513
Protocol: as §1

[19] = test system: Y2746 OE AfCYP51A AfCPR AfERG6; test: MIC80 determination, strain Y2746; format: cell-based, S. cerevisiae; conditions: Saccharomyces cerevisiae
Protocol: as §1

[20] = test system: Y1; test: MIC80 determination, C. albicans clinical isolate Y1; format: cell-based; conditions: Candida albicans, pH 7, 24 h
Protocol: as §1

[21] = test system: Y2716 OE CpCYP51 Y132F; test: MIC80 determination, strain Y2716; format: cell-based, S. cerevisiae; conditions: for increase in resistance owing to the CpCYP51 Y132F mutation: MIC80 Y2716 versus Y2721; for MIC80: Saccharomyces cerevisiae
Protocol: as §1

[22] = test system: Y2721 OE CpCYP51; test: MIC80 determination, strain Y2721; format: cell-based, S. cerevisiae; conditions: for MIC80: Saccharomyces cerevisiae; for MIC: read-out: MIC (nM) C. parapsilosis model Y2721
Protocol: as §1

[23] = test system: Y525 MFS efflux pump CaMDR1a overexpressed; test: Agarose (disk) diffusion assay, strain Y525; format: cell-based, S. cerevisiae; conditions: 10 nmol/disk, 30 °C, 48 h
Text: as §2, §3

[24] = test system: Y2300 ScCYP51 overexpressed; test: Agarose (disk) diffusion assay, strain Y2300; format: cell-based, S. cerevisiae; conditions: 10 nmol/disk, 30 °C, 48 h
Text: as §2, §3

Compound	MIC80 [1] [µM]	zone of growth inhibition (inhibitory activity in words) [2]	MIC80 [3] [µM]	MIC [3] [nM]	MIC [4] [nM]	MIC80 [4] [µM]	MIC80 [5] [µM]	MIC80 [6] [µM]	MIC [6] [nM]	MIC [7] [nM]	MIC80 [7] [µM]	zone of growth inhibition (inhibitory activity in words) [8]	MIC [9] [nM]	MIC80 [9] [µM]	MIC80 [10] [µM]	MIC [10] [nM]	MIC80 [11] [µM]	MIC [11] [nM]	MIC80 [12] [µM]	MIC80 [13] [µM]	further results
O=C(NCC(O)(Cn1cncn1)c1ccc(F)cc1F)c1cccc(-c2ccc(C(F)(F)F)cc2)c1 (stereo not shown) [Compound 23, N-(2-(2,4-Difluorophenyl)-2-hydroxy-3-(1H-1,2,4-triazol-1-yl)propyl)-4’-(trifluoromethyl)-[1,1’-biphenyl]-3-carboxamide]	2.57 ± 0.938	significantly greater resistance	0.069 ± 0.039	69 ± 39	32 ± 19	0.032 ± 0.019	4.25	0.037 ± 0.011	37 ± 11	100	0.1	significantly greater resistance	150 ± 26	0.15 ± 0.026	0.076 ± 0.012	76 ± 12	0.06 ± 0.011	60 ± 11	0.4 ± 0.113	13.1	MIC80 [14]: 0.02 µM; MIC [14]: 20 nM; MIC [15]: 8100 nM; MIC80 [15]: 8.1 µM; MIC80 [16]: 0.44 µM; MIC [16]: 440 nM; MIC80 [17]: 0.411 ± 0.071 µM; MIC [17]: 411 ± 71 nM; MIC80 [18]: 0.805 ± 0.121 µM; MIC [18]: 805 ± 121 nM; MIC80 [19]: 3.52 ± 0.209 µM; MIC80 [20]: 0.12 µM; increase in resistance owing to the CpCYP51 Y132F mutation [21]: > 19 fold; MIC80 [21]: 1.91 ± 0.02 µM; MIC80 [22]: 0.055 ± 0.003 µM; MIC [22]: 55 ± 3 nM
O=C(NCc1ccc(-c2ccc(OC(F)(F)F)cc2)cc1)C(Cn1cncn1)c1ccc(F)cc1F (stereo not shown) [Compound 40]	–	low inhibitory activity	–	–	–	–	–	–	–	–	–	low inhibitory activity	–	–	–	–	–	–	–	–	zone of growth inhibition (inhibitory activity in words) [23]: low inhibitory activity
O=C(Nc1ccc(CNC(=O)C(Cn2cncn2)c2ccc(F)cc2F)cc1)c1cnccn1 (stereo not shown) [Compound 48, N-(4-((2-(2,4-Difluorophenyl)-3-(1H-1,2,4-triazol-1-yl)propanamido)methyl)phenyl)pyrazine-2-carboxamide]	–	–	–	–	–	–	–	–	–	–	–	–	–	–	–	–	–	–	–	–	zone of growth inhibition (inhibitory activity in words) [24]: lower inhibitory activity
O=C(NCc1ccc(-c2ccc(C(F)(F)F)cc2)cc1)C(Cn1cncn1)c1ccc(F)cc1F (stereo not shown) [Compound 39]	–	lacked inhibitory activity	–	–	–	–	–	–	–	–	–	lacked inhibitory activity	–	–	–	–	–	–	–	–	zone of growth inhibition (inhibitory activity in words) [23]: lacked inhibitory activity
O=C(NCC(O)(Cn1cncn1)c1ccc(F)cc1F)c1cccc(-c2ccc(OC(F)(F)F)cc2)c1 (stereo not shown) [Compound 24, N-(2-(2,4-Difluorophenyl)-2-hydroxy-3-(1H-1,2,4-triazol-1-yl)propyl)-4’-(trifluoromethoxy)-[1,1’-biphenyl]-3-carboxamide]	1.4	significantly greater resistance	0.163 ± 0.061	163 ± 61	16	0.016	3.4	0.03	30	85	0.085	significantly greater resistance	50	0.05	0.168	168	0.116 ± 0.061	116 ± 61	0.37 ± 0.042	11.8	MIC80 [14]: 0.002 µM; MIC [14]: 2 nM; MIC [15]: 17000 nM; MIC80 [15]: 17 µM; MIC80 [16]: 0.43 µM; MIC [16]: 430 nM; MIC80 [17]: 0.419 ± 0.083 µM; MIC [17]: 419 ± 83 nM; MIC80 [18]: 0.719 ± 0.001 µM; MIC [18]: 719 ± 1 nM; MIC80 [19]: 2.7 µM; MIC80 [20]: 0.12 µM; increase in resistance owing to the CpCYP51 Y132F mutation [21]: > 19 fold; MIC80 [21]: 1.75 µM; MIC80 [22]: 0.094 µM; MIC [22]: 94 nM
